This passage reports inhibition, Activity and IC50 results from ChEMBL document CHEMBL3853268, “Thiosemicarbazone modification of 3-acetyl coumarin inhibits Aβ peptide aggregation and protect against Aβ-induced cytotoxicity” (Eur J Med Chem, 2016).

Data set [1] addresses Amyloid-beta precursor protein (Homo sapiens) (UniProt P05067). Nature of the data set: Inhibition of HFIP-induced amyloid beta (1 to 42 residues) (unknown origin) aggregation at 1:1 protein to compound ratio preincubated for 15 mins followed by HFIP addition measured after 40 mins by silver staining-based native PAGE assay.
Data set [2] in a line: Neuroprotective activity against amyloid beta (1 to 42 residues)-induced toxicity in human SH-SY5Y cells assessed as cell viability at 5 to 20 uM after 3 days by MTT assay (reference value: 28%). In kind it is functional. For orientation: Tetrazolium assays rely on reduction of a dye to a coloured formazan, in cell work by metabolically active cells.
The target in data set [3] is Amyloid-beta precursor protein (Homo sapiens) (UniProt P05067). The data set can be described thus: Inhibition of HFIP-induced amyloid beta (1 to 42 residues) (unknown origin) aggregation at 1:1 protein to compound ratio preincubated for 15 mins followed by HFIP addition measured after 40 mins by turbidity assay relative to control.
For data set [4] the target is unchanged. Nature of the data set: Inhibition of HFIP-induced amyloid beta (1 to 42 residues) (unknown origin) aggregation at 1:0.75 protein to compound ratio preincubated for 15 mins followed by HFIP addition measured after 40 mins by ThT fluorescence assay.
The target is the same in data set [5]. The data set can be described thus: Inhibition of HFIP-induced amyloid beta (1 to 42 residues) (unknown origin) aggregation assessed as decrease in levels of higher aggregates at 1:1 protein to compound ratio preincubated for 15 mins followed by HFIP addition measured after 40 mins by silver staining-based native PAGE assay.
Data set [6] has the same target. The data set can be described thus: Inhibition of HFIP-induced amyloid beta (1 to 42 residues) (unknown origin) aggregation at 1:1 protein to compound ratio preincubated for 15 mins followed by HFIP addition measured after 40 mins by ThT fluorescence assay relative to control.
The target is the same in data set [7]. Nature of the data set: Inhibition of HFIP-induced amyloid beta (1 to 42 residues) (unknown origin) aggregation at 1:0.5 protein to compound ratio preincubated for 15 mins followed by HFIP addition measured after 40 mins by ThT fluorescence assay.
Data set [8] shares this target. The data set can be described thus: Inhibition of HFIP-induced amyloid beta (1 to 42 residues) (unknown origin) aggregation at 1:1 protein to compound ratio preincubated for 15 mins followed by HFIP addition measured after 40 mins by ANS extrinsic fluorescence assay relative to control.
Data set [9] can be described thus: Cytotoxicity against human SH-SY5Y cells assessed as decrease in cell viability after 24 hrs by MTT assay. In kind it is toxicity, cell-based.
Data set [10] concerns the target Amyloid-beta precursor protein (Homo sapiens) (UniProt P05067). The data set can be described thus: Inhibition of HFIP-induced amyloid beta (1 to 42 residues) (unknown origin) aggregation at 1:0.25 protein to compound ratio preincubated for 15 mins followed by HFIP addition measured after 40 mins by ThT fluorescence assay relative to control.

The source made the active and inactive calls. The rule behind the calls is not given here.

Amyloid-beta precursor protein (Homo sapiens), sequence (P05067 whole entry, the tested form may be a part): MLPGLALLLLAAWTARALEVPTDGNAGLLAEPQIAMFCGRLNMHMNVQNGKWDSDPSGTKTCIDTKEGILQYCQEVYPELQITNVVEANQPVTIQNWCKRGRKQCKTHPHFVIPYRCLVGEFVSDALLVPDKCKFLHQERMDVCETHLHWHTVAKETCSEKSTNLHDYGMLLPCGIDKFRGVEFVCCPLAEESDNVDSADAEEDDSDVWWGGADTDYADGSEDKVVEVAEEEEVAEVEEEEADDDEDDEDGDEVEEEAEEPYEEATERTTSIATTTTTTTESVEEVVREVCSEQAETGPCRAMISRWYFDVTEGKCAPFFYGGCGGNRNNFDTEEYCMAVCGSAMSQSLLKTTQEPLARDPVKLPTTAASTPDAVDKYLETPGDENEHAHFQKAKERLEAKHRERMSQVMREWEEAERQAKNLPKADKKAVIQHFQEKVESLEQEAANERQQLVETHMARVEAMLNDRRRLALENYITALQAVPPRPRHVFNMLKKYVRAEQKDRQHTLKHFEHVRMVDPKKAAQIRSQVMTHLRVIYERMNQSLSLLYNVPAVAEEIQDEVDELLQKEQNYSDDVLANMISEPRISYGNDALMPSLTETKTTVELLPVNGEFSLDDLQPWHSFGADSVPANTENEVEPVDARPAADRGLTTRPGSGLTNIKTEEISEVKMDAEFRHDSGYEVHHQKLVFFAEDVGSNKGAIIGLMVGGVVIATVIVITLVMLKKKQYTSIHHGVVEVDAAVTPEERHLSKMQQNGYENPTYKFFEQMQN

As to `C/C(=N\NC(N)=S)c1cc2ccccc2oc1=O`, the inhibition result in data set [1], in data set [4], in [5] and in data set [7] was “Active” in each case. In data set [2], the Activity is given as 95%. In addition, the inhibition (usually the drop in the measured response relative to a control, in per cent) was determined as 78% in [3], 80% in data set [6], 86% in [8] and 53% in [10]. Moreover, in data set [9] (sh-sy5y), the IC50 (commonly the concentration at which inhibition is half-maximal) was no more than 185 µM.
As to `CC(=O)c1cc2ccccc2oc1=O` [3-ACETYLCOUMARIN], the inhibition entry in data set [1], in data set [4], in [5] and in [7] was “Active” throughout. In addition, the Activity in [2] was found to be 77%. The inhibition worked out at 59% in [3], 50% in [6], 40% in data set [8] and 40% in [10]. Moreover, the IC50 at 24 h in data set [9] (human, SH-SY5Y cells) amounted to 75 µM.
For the compound `Oc1c(I)cc(Cl)c2cccnc12`, the inhibition entry in [1] is “Active”.
